Measurements as given in the NIST ThermoML archive (doi:10.1016/j.tca.2015.01.012).
± gives the expanded uncertainty stated by the source.

Conditions: 101.33 kPa, Crystal; for molar entropy: Small (less than 1 g) adiabatic calorimetry; for mass density: X-ray diffraction

O=C(O)c1cccnc1 [3-carboxylpyridine]
Conditions	mass density [kg/m3]	molar entropy [J/K/mol]
1 K	–	0.0005
2 K	–	0.004
3 K	–	0.0136 ± 0.024
4 K	–	0.0323 ± 0.024
5 K	–	0.063 ± 0.025
6 K	–	0.1089 ± 0.025
7 K	–	0.1788 ± 0.027
8 K	–	0.2634 ± 0.028
9 K	–	0.3747 ± 0.03
10 K	–	0.5086 ± 0.034
15 K	–	1.592 ± 0.066
20 K	–	3.297 ± 0.12
25 K	–	5.543 ± 0.18
30 K	–	8.212 ± 0.29
35 K	–	11.2 ± 0.37
40 K	–	14.39 ± 0.47
45 K	–	17.7 ± 0.33
50 K	–	21.08 ± 0.38
60 K	–	27.91 ± 0.49
70 K	–	34.69 ± 0.6
80 K	–	41.32 ± 0.7
90 K	–	47.75 ± 0.5
100 K	–	53.98 ± 0.55
110 K	–	60.02 ± 0.59
120 K	–	65.91 ± 0.63
130 K	–	71.64 ± 0.67
140 K	–	77.24 ± 0.71
150 K	1481 ± 6	82.72 ± 0.75
160 K	–	88.1 ± 0.79
170 K	–	93.38 ± 0.83
175 K	1477 ± 6	–
180 K	–	98.6 ± 0.86
190 K	–	103.7 ± 0.9
200 K	1471 ± 6	108.9 ± 0.9
210 K	–	113.9 ± 1
220 K	–	119 ± 1
225 K	1465 ± 6	–
230 K	–	124 ± 1
240 K	–	129 ± 1.1
250 K	1460 ± 6	134.1 ± 1.1
260 K	–	139.1 ± 1.2
270 K	–	144.2 ± 1.2
273.15 K	–	145.7 ± 1.2
275 K	1454 ± 6	–
280 K	–	149.2 ± 1.2
290 K	–	154.3 ± 1.3
298.15 K	–	158.4 ± 1.3
300 K	1444 ± 6	159.3 ± 1.3
310 K	–	164.4 ± 1.3
320 K	–	169.5 ± 1.4
325 K	1436 ± 6	–
330 K	–	174.6 ± 1.4
340 K	–	179.7 ± 1.5
346 K	–	182.8 ± 1.5
350 K	1430 ± 6	–
375 K	1422 ± 6	–
400 K	1413 ± 6	–
425 K	1406 ± 6	–
